These results are taken from US20080200544A1, “Oil agent and lubricant agent, moisturizer and external preparation composition containing the same” (priority 2007, published 2008).

A short description of series [1]: Viscosity, Brookfield viscometer DV-II+ (Spindle No. 2, 12 rpm, 25° C.). As to conditions: for Viscosity: 25° C.; for Feeling of use: class assigned from viscosity at 25° C. It counts as physicochemical.
Description: In this specification, “viscosity” refers to a value of viscosity measured using a Brookfield viscometer DV-II+ (Spindle No. 2, 12 rpm, 25° C.).
In these examples, viscosity was measured using a Brookfield viscometer DV-II+ (Spindle No. 2, 12 rpm, 25° C.).
Series [2] is described as follows: Water solubility evaluation. As to conditions: in water.
A short description of series [3]: Oil solubility evaluation in KAK99. As to conditions: in KAK99 (isononyl isononanoate).

Structures can show the parent of a compound that is named as a salt.

Take `CCOCCOCCOC(=O)CCC(=O)OCCOCCOCC` [Example 1, dicarbitol succinate]: in series [1], the Viscosity was found to be 12.5 mPa · s and the Feeling of use result is listed as “light”.
On to `CCOCCOCCOC(=O)CCCCC(=O)OCCOCCOCC` [Example 3, dicarbitol adipate], for which, in series [1], the Viscosity worked out at 20 mPa · s and the Feeling of use result is “light”.
In turn, `CCOCCOCCOC(=O)CC(O)C(=O)OCCOCCOCC` (stereo not drawn) [Example 2, dicarbitol malate] came in with a Viscosity in series [1] of 45 mPa · s. Also, the Water solubility entry in series [2] was “◯ (Dissolved in water up to 10% by mass)”. Besides, in series [3], the Oil solubility result is recorded as “Δ (Dissolved in KAK99 up to 5% by mass)”.
In series [1], `CCOCCOCCOCCOC(=O)CCC(=O)OCCOCCOCCOCC` [Example 5, di(triethylene glycol monoethyl ether) succinate] gave a Viscosity of 32.5 mPa · s. Besides, the Oil solubility entry in series [3] was “Δ (Dissolved in KAK99 up to 5% by mass)”.
In series [1], `CCOCCOCCOC(=O)C(O)C(O)C(=O)OCCOCCOCC` (stereo not drawn) [Example 4, dicarbitol tartrate] had a Viscosity of 207 mPa · s.
For the compound `CCOCCOC(=O)CCC(=O)OCCOCC` [Example 6, di(monoethylene glycol monoethyl ether) succinate], in series [1], the Viscosity was determined as 10.0 mPa · s and the Feeling of use result is reported as “light”. In addition, the Water solubility result in series [2] is “Δ (Dissolved in water up to 5% by mass)”.
“dicarbitol isononanoate [compound 1, reference compound]”: in series [1], the Viscosity worked out at 5 mPa · s and the Feeling of use result is listed as “light”.
